Laboratory results reported in EP4371563A1, “COMBINATIONS OF LAROTRECTINIB AND MODERATE CYP3A4 INDUCERS” (Bayer Consumer Care AG, priority 2022, dated 2024).

Assays:
[1] = In silico model: simulated larotrectinib plasma exposure after a single oral dose with and without itraconazole or rifampicin (model verification against observed data); design: species or system human
Procedure: The effect of different CYP3A4 inhibitors and inducers on the pharmacokinetics of larotrectinib was evaluated using an in silico model. The following drugs were included in the study: The model was correlated by comparison of simulated and observed plasma concentrations in both healthy subjects and cancer patients for midazolam, testosterone, and several of the tested drugs, including larotrectinib alone, larotrectinib + intraconazole, larotrectinib + rifampicin. The following virtual trials were conducted: 12 healthy subjects (50% female) aged 20 to 55 years receiving larotrectinib (100 mg BID) for 14 days in the absence of itraconazole and coadminstered with itraconazole (tablets in fed state; 200 mg QD). A comparison was made between mean simulated and observed plasma concentrations of larotrectinib following a single oral dose of 100 mg larotrectinib in the absence of and co-administered with itraconazole on the 5th day of 7 days of dosing (200 mg QD). Simulated Cmax and AUC and corresponding ratios for larotrectinib are shown below. […] A comparison was made between mean simulated and observed plasma concentrations of larotrectinib following a single oral dose of 100 mg larotrectinib in the absence of and co-administered with rifampicin on the 10th day of 11 days of dosing (600 mg QD). Simulated Cmax and AUC and corresponding ratios for larotrectinib are shown below.

[2] = Observed larotrectinib plasma exposure after a single oral dose with and without itraconazole or rifampicin; type: in vivo, human; conditions: for AUC / Cmax: human, plasma, po
Procedure: A comparison was made between mean simulated and observed plasma concentrations of larotrectinib following a single oral dose of 100 mg larotrectinib in the absence of and co-administered with itraconazole on the 5th day of 7 days of dosing (200 mg QD). Simulated Cmax and AUC and corresponding ratios for larotrectinib are shown below. […] A comparison was made between mean simulated and observed plasma concentrations of larotrectinib following a single oral dose of 100 mg larotrectinib in the absence of and co-administered with rifampicin on the 10th day of 11 days of dosing (600 mg QD). Simulated Cmax and AUC and corresponding ratios for larotrectinib are shown below.

[3] = Observed larotrectinib exposure at 100 mg BID without CYP3A4 perpetrators; conditions: in vivo, 100 mg BID larotrectinib in the absence of any CYP3A4 perpetrators
Procedure: 100 mg BID larotrectinib was administered in the absence of any CYP3A4 perpetrators.

[4] = Observed, plus rifampicin 600 mg QD / control, single oral dose 100 mg larotrectinib, interval in brackets
[5] = coadministration of larotrectinib with rifampicin (600 mg QD)
[6] = 100 mg, Observed, Control: single oral dose 100 mg larotrectinib in absence of itraconazole, healthy subjects
[7] = 100 mg, Observed, Control: single oral dose 100 mg larotrectinib in absence of rifampicin
[8] = Observed, single oral dose 100 mg larotrectinib plus itraconazole 200 mg QD (5th day of 7 days), healthy subjects
[9] = Observed, single oral dose 100 mg larotrectinib plus rifampicin 600 mg QD (10th day of 11 days)

Structure (SMILES): O=C(Nc1cnn2ccc(N3CCC[C@@H]3c3cc(F)ccc3F)nc12)N1CC[C@H](O)C1 [larotrectinib]
- P/O Ratio AUC ([1]; predicted/observed of the AUC ratio plus itraconazole / control): 1.04
- P/O Ratio AUC ([1]; predicted/observed of the AUC ratio plus rifampicin / control): 0.79
- P/O Ratio Cmax ([1]; predicted/observed of the Cmax ratio plus itraconazole / control): 0.79
- P/O Ratio Cmax ([1]; predicted/observed of the Cmax ratio plus rifampicin / control): 0.76
- Ratio AUC [2, 4]: 0.19 (0.16, 0.24)
- Ratio Cmax [2, 4]: 0.29 (0.23, 0.37)
- observed reduction in exposure of larotrectinib, AUC [2, 5]: 81%
- observed reduction in exposure of larotrectinib, Cmax [2, 5]: 71%
- AUC [2, 6]: 1280 ng·h/mL
- Cmax [2, 6]: 497 ng/mL
- AUC [2, 7]: 1340 ng·h/mL
- Cmax [2, 7]: 435 ng/mL
- AUC [2, 8]: 5520 ng·h/mL
- Cmax [2, 8]: 1400 ng/mL
- AUC [2, 9]: 259 ng·h/mL
- Cmax [2, 9]: 133 ng/mL
- AUC [3]: 1590 ng·h/mL
- Cmax [3]: 624 ng/mL
